The source of these data is patent publication US20060204460A1, “Lip gloss composition” (KOKYU ALCOHOL KOGYO CO., LTD., priority 2005, published 2006).

The data set can be described thus: Viscosity of liquid oil (E) on a Brookfield viscometer. The class given is physicochemical. The note with it: at 25 degrees C., No. 2 spindle, 12 rpm. The method, then: The liquid oil having a viscosity of from 5 to 400 mPa·s at 25 degrees C., (E), is known and commonly used in cosmetics. The viscosity of the liquid oil at 25 degrees C. is preferably 8 to 350 mPa·s, and more preferably 12 to 300 mPa·s. […] The viscosity is measured on a Brookfield viscometer using No. 2 spindle at 12 rpm.
As for octyldodecyl stearoyloxystearate, the Viscosity amounted to 90 mPa·s.

hexyldecyl ethylhexanoate registered a Viscosity of 11 mPa·s.

Turning to `CC(C)CCCCCCOC(=O)CCCCCC(C)C` [isononyl isononanoate], the Viscosity is 6 mPa·s.

Regarding `CCCCC(CC)C(=O)OCC(COC(=O)C(CC)CCCC)(COC(=O)C(CC)CCCC)COC(=O)C(CC)CCCC` (stereo not drawn) [pentaerythrityl tetraethylhexanoate], the Viscosity came to 110 mPa·s.

Consider `CC(C)CCCCCCCCCCOC(=O)CCCCCC(C)C` [isotridecyl isononanoate], for which the Viscosity is listed as 12 mPa·s.

Consider diisopropyl dilinoleate, for which the Viscosity was 310 mPa·s.

In the case of `CC(C)CCCCCCCCCCCCCCC(=O)OC(C)C` [isopropyl isostearate], the Viscosity turned out to be 10 mPa·s.

For the compound `CC(C)CCCCCCCCCCCCCCCOC(=O)C(C)(C)C` [isostearyl neopentanoate], the Viscosity stood at 15 mPa·s.

Consider isononyl ethylhexanoate, for which the Viscosity was determined as 5 mPa·s.

In the case of triisostearine, the Viscosity was 185 mPa·s.

For the compound hexyldecyl isostearate, the Viscosity stood at 34 mPa·s.

`CC(C)CCCC(C)CCCC(C)CCCCC(C)CCCC(C)CCCC(C)C` (stereo not drawn) [squalane] returned a Viscosity of 32 mPa·s.

The compound ethylhexyl hydroxystearate registered a Viscosity of 64 mPa·s.

Turning to `CCCCC(CC)C(=O)OCC(COC(=O)C(CC)CCCC)OC(=O)C(CC)CCCC` (stereo not drawn) [triethyl hexanoin], the Viscosity is listed as 35 mPa·s.

For octyldodecyl neopentanoate, the Viscosity is 15 mPa·s.

`CCCCCCCCCCCCCCCC(=O)OC(C)C` [isopropyl palmitate] gave a Viscosity of 7 mPa·s.

pentaerythrityl tetraisostearate returned a Viscosity of 290 mPa·s.

`CCCCCCCCCCCCCCCCOC(=O)C(CC)CCCC` (stereo not drawn) [cetyl ethylhexanoate] showed a Viscosity of 13 mPa·s.

octyldodecyl neodecanoate: the Viscosity is 25 mPa·s.

As for `CC(C)CCCCCCCCCCCCCCCOC(=O)CCCCCCCCCCCCCCC(C)C` [isostearyl isostearate], the Viscosity is reported as 40 mPa·s.

In turn, trimethylolpropane triethylhexanoate registered a Viscosity of 52 mPa·s.

`CCCCCCCCCC(=O)OCC(C)(C)COC(=O)CCCCCCCCC` [neopentylglycol dicaprate] returned a Viscosity of 19 mPa·s.

trimethylolpropane triisostearate yielded a Viscosity of 180 mPa·s.

With `CCCCC(CC)C(=O)OCC(C)(C)COC(=O)C(CC)CCCC` (stereo not drawn) [neopentylglycol diethylhexanoate], the Viscosity was found to be 13 mPa·s.
